Test results published in patent US10118944B2, “Cell penetrating peptides for intracellular delivery of molecules” (AADIGEN, LLC, priority 2012, dated 2018).

Key:
Hela [1] = assay: VEPEP-5 mediated delivery of small hydrophobic molecules, inhibition of proliferation; format: cell-based; conditions: Homo sapiens, free drug without carrier
From the text: (§1) VEPEP-5 peptides (Short-6, Short-7 and Short 11) have been used for the delivery of different small hydrophobic molecules including doxorubicin and porphyrin on different cell lines including primary cell lines and challenging cell lines. VEPEP-5 peptides form stable particles with small aromatic molecules (table 2). Effect of VEPEP-5 mediated delivery of doxorubicin and porphyrin have been investigated on cancer cell viability. […] The impact of carrier peptides to improve cellular uptake of small molecule drugs was estimated by following inhibition of proliferation of cancer cells.

MCF7 [2] = assay: as above; format: cell-based; conditions: Homo sapiens, free drug without carrier
From the text: as §1

Hela [3] = assay: VEPEP-5 mediated delivery of C4 peptide (targeting cdk2/cyclin A), cell proliferation; format: cell-based, Human; conditions: VEPEP-5 (Short-6, Short-7 and Short 11) mediated delivery
Experimental: (§2) Adherent HS68 fibroblasts, HeLa, PC3, Jurkat, CEM-SS and U2OS MCF-7 cell lines (from American Type Culture Collection (ATCC)), as well as MEF and PBMC were cultured in Dulbecco's Modified Eagle's Medium supplemented with 2 mM glutamine, 1% antibiotics (streptomycin 10,000 μg/ml, penicillin, 10,000 IU/ml) and 10% (w/v) foetal calf serum (FCS), at 37° C. in a humidified atmosphere containing 5% CO2. Stock solutions of VEPEP-5/peptide particles were prepared by complexing 1 μM peptide with VEPEP-5 peptides at a molar ratio of 1/20 for 30 min at 37° C. Lower concentrations of VEPEP-5-carrier/peptide (from 500 nM to 1 μM) were obtained by serial dilution of the stock complexes in PBS, in order to preserve the same VEPEP-5-carrier/peptide ratio. 150 000 cells seeded in a 35 mm dish the day prior transfection, were grown to 60% confluence and overlaid with 200 μl of preformed complexes, incubated for 3-5 min, then 400 μl of DMEM were added. After 30 min. incubation at 37° C., 1 ml of fresh DMEM containing 16% foetal calf serum (FCS) was added in order to reach a final FCS concentration of 10%, without removing the overlay of VEPEP-5/peptide complexes. Cells were returned to the incubator for 24 hrs. For CDK2 derived peptides cell proliferation was monitored after 24 and 48 hrs. Data reported are an average of 3 or 4 distinct experiments. […]

MCF7 [4] = assay: as above; format: cell-based, Human; conditions: VEPEP-5 (Short-6, Short-7 and Short 11) mediated delivery
Experimental: as §2

Cyclin B1 protein level = assay: VEPEP-5 mediated delivery of PNA antisense, Cyclin B1 knockdown; format: cell-based, Human; conditions: controls: free PNA; scrambled PNA complexed with Short-6 and Short-11
From the text: VEPEP-5 (Short-6, Short-7 and Short 11) peptides have been used for the delivery of nucleic acid analog (PNA and morpholino) into different cell lines, including primary cell lines and challenging cell lines. Uptake was monitored by following biological response (Cyclin B1 knockdown). We then have applied Short-6, Short-7 and Short 11 for the delivery of PNA antisense targeting Cyclin B1 as previously described by Morris et al..

CEM-SS [5] = assay: VEPEP-5 mediated delivery of fluorescent labelled peptide (microscopy/FACS); format: cell-based, Human; conditions: % of the cells
Experimental: (§3) Adherent HS68 fibroblasts, HeLa, PC3, Jurkat, CEM-SS and U2OS MCF-7 cell lines (from American Type Culture Collection (ATCC)), as well as MEF and PBMC were cultured in Dulbecco's Modified Eagle's Medium supplemented with 2 mM glutamine, 1% antibiotics (streptomycin 10,000 μg/ml, penicillin, 10,000 IU/ml) and 10% (w/v) foetal calf serum (FCS), at 37° C. in a humidified atmosphere containing 5% CO2. Stock solutions of VEPEP-5/peptide particles were prepared by complexing 1 μM peptide with VEPEP-5 peptides at a molar ratio of 1/20 for 30 min at 37° C. Lower concentrations of VEPEP-5-carrier/peptide (from 500 nM to 1 μM) were obtained by serial dilution of the stock complexes in PBS, in order to preserve the same VEPEP-5-carrier/peptide ratio. 150 000 cells seeded in a 35 mm dish the day prior transfection, were grown to 60% confluence and overlaid with 200 μl of preformed complexes, incubated for 3-5 min, then 400 μl of DMEM were added. After 30 min. incubation at 37° C., 1 ml of fresh DMEM containing 16% foetal calf serum (FCS) was added in order to reach a final FCS concentration of 10%, without removing the overlay of VEPEP-5/peptide complexes. Cells were returned to the incubator for 24 hrs. For CDK2 derived peptides cell proliferation was monitored after 24 and 48 hrs. Data reported are an average of 3 or 4 distinct experiments.
(§4) VEPEP-5 peptides (Short-6, Short-7 and Short 11) have been used for the delivery of different peptides into different cell lines, including primary cell lines, stem cell lines and challenging cell lines. Peptide delivery was monitored using three approaches, fluorescence spectroscopy and monitoring biological responses (anti proliferation)
(§5) 1—Fluorescent labelled peptide was visualized in the different cell lines using fluorescence microscopy or FACS sorting (Table 3). In most of the cell lines, the uptake of Cy-5 labelled peptides is more than 70% of the cells

Hela [6] = assay: as above; format: cell-based, Human; conditions: % of the cells
Experimental: as §3, §4, §5

MCF7 [7] = assay: as above; format: cell-based, Human; conditions: MCF7, % of the cells
Experimental: as §3, §4, §5

U2OS [8] = assay: as above; format: cell-based, Human; conditions: % of the cells
Experimental: as §3, §4, §5

PBMC = assay: as above; format: cell-based, Human; conditions: % of the cells
Experimental: as §3, §4, §5

HS-68 [9] = assay: as above; format: cell-based, Human; conditions: HS-68, % of the cells
Experimental: as §3, §4, §5

[10] = Fluorescence titration, VEPEP-5/SHM binding: doxorubicin; conditions: cargo Doxorubicin
Experimental: (§6) Fluorescence experiments were performed on a PTI spectrofluorimeter at 25° C. in a NaCl 154 mM buffer. Intrinsic Trp-fluorescence of VEPEP-5 was excited at 290 nm and emission spectrum was recorded between 310 and 400 nm, with a spectral band-pass of 2 and 8 nm for excitation and emission, respectively. FITC-fluorescence of labelled-peptide was excited at 492 nm and emission recorded between 500 and 580 nm. For […]/peptide interaction, 0.5 μM of FITC-labelled peptide was titrated by increasing concentrations of VEPEP-5. All measurements were corrected for the dilution and curve fitting were performed by using Grafit software (Erithacus).
(§7) VEPEP-5 peptides also form stable particles with small aromatic molecules including doxorubicin, porphyrin and charges molecules including nucleotide, nucleoside and peptide-analog of nucleic acids or fluorescent dyes (FIG. 1). The dissociation constant for small hydrophobic molecule ranges between 0.05 to 0.1 μM, depending on the nature of the dyes and of the peptides (Table 2).

HeLa and U2OS cells = assay: Toxicity of VEPEP-5 particles by MTT assay; format: cell-based, Human
Experimental: Cytotoxic response was measured 24 hr later by colorimetric MTT assay (Sigma, Germany), respectively. […] Results correspond to the average of 3 separate experiments.

MEF [11] = assay: VEPEP-5 mediated delivery of proteins (fluorescence/FACS); format: cell-based, Mouse; conditions: % of the cells
Experimental: as §3
(§8) VEPEP-5 have been used for the delivery of different proteins into different cell lines, including primary cell lines, stem cell lines and challenging cell lines. Protein uptake was monitored using fluorescence spectroscopy and FACS analysis. GFP/RFP or Fluorescent labelled proteins were visualized in the different cell lines using fluorescence microscopy or FACS sorting (Table 5). In most of the cell lines, the uptake of RFP; GFP, Cy-5 labelled proteins is more than 50% of the cells.

MEF [12] = assay: VEPEP-5 mediated delivery of fluorescent labelled peptide (microscopy/FACS); format: cell-based, Mouse; conditions: % of the cells
Experimental: as §3, §4, §5

[13] = Fluorescence titration, VEPEP-5/SHM binding: FAM-guanosine; conditions: cargo FAM-guanosine
Experimental: as §6, §7

CEM-SS [14] = assay: VEPEP-5 mediated delivery of proteins (fluorescence/FACS); format: cell-based, Human; conditions: % of the cells
Experimental: as §3, §8

Jurkat = assay: as above; format: cell-based, Human; conditions: % of the cells
Experimental: as §3, §8

Hela [15] = assay: as above; format: cell-based, Human; conditions: % of the cells
Experimental: as §3, §8

MCF7 [16] = assay: as above; format: cell-based, Human; conditions: MCF7, % of the cells
Experimental: as §3, §8

U2OS [17] = assay: as above; format: cell-based, Human; conditions: % of the cells
Experimental: as §3, §8

HS-68 [18] = assay: as above; format: cell-based, Human; conditions: HS-68, % of the cells
Experimental: as §3, §8

[19] = Fluorescence titration, VEPEP-5/SHM binding: porphyrin; conditions: cargo porphyrin
Experimental: as §6, §7

| Binding, Doxorubicin [10] | Binding, FAM-guanosine [13] | Binding, porphyrin [19] | Kd [19] [nM] | Compound | Efficiency (uptake of fluorescent labelled peptide) (CEM-SS [5]) [%] | Efficiency (uptake of fluorescent labelled peptide) (Hela [6]) [%] | Efficiency (uptake of fluorescent labelled peptide) (MCF7 [7]) [%] | Efficiency (uptake of fluorescent labelled peptide) (U2OS [8]) [%] | Efficiency (uptake of fluorescent labelled peptide) (PBMC) [%] | Efficiency (uptake of fluorescent labelled peptide) (HS-68 [9]) [%] | toxicity (MTT) (HeLa and U2OS cells; levels up to 200 nM) | toxicity (MTT) (HeLa and U2OS cells; maximum concentration of 1 μM) | uptake of RFP; GFP, Cy-5 labelled proteins (MEF [11]) [%] | Efficiency (uptake of fluorescent labelled peptide) (MEF [12]) [%] | uptake of RFP; GFP, Cy-5 labelled proteins (CEM-SS [14]) [%] | uptake of RFP; GFP, Cy-5 labelled proteins (Jurkat) [%] | uptake of RFP; GFP, Cy-5 labelled proteins (Hela [15]) [%] | uptake of RFP; GFP, Cy-5 labelled proteins (MCF7 [16]) [%] | uptake of RFP; GFP, Cy-5 labelled proteins (U2OS [17]) [%] | uptake of RFP; GFP, Cy-5 labelled proteins (HS-68 [18]) [%] | other results |
| --- | --- | --- | --- | --- | --- | --- | --- | --- | --- | --- | --- | --- | --- | --- | --- | --- | --- | --- | --- | --- | --- |
| yes | yes | yes | 700 | X1RSWFRLWFR [Short 11, X1 is beta-A or S; N-terminus acetylated, C-terminal cysteamide] | 70 | 69 | 58 | 55 | 78 | 80 | No toxicity | mild toxicity | 60 | 70 | 65 | 78 | 60 | 62 | 71 | 70 | – |
| yes | yes | yes | 500 | X1WFRLWFRLR [Short 7, X1 is beta-A or S; N-terminus acetylated, C-terminal cysteamide] | 75 | 70 | 75 | 71 | 80 | 78 | No toxicity | mild toxicity | 65 | 71 | 60 | 70 | 80 | 75 | 80 | 80 | Kd [10]: 70 nM |
| yes | yes | yes | 400 | X1WWRLWWRLR [Short 6, X1 is beta-A or S; N-terminus acetylated, C-terminal cysteamide] | 74 | 45 | 59 | 68 | 78 | 89 | No toxicity | mild toxicity | 65 | 64 | 55 | 60 | 55 | 70 | 64 | 78 | Kd [13]: 60 nM |

Second part, the compound before the results:

| Compound | Binding, Doxorubicin [10] | Binding, FAM-guanosine [13] | Binding, porphyrin [19] | Kd [19] [nM] | Efficiency (uptake of fluorescent labelled peptide) (CEM-SS [5]) [%] | Efficiency (uptake of fluorescent labelled peptide) (Hela [6]) [%] | Efficiency (uptake of fluorescent labelled peptide) (MCF7 [7]) [%] | Efficiency (uptake of fluorescent labelled peptide) (U2OS [8]) [%] | Efficiency (uptake of fluorescent labelled peptide) (PBMC) [%] | Efficiency (uptake of fluorescent labelled peptide) (HS-68 [9]) [%] | toxicity (MTT) (HeLa and U2OS cells; levels up to 200 nM) | toxicity (MTT) (HeLa and U2OS cells; maximum concentration of 1 μM) | uptake of RFP; GFP, Cy-5 labelled proteins (MEF [11]) [%] | Efficiency (uptake of fluorescent labelled peptide) (MEF [12]) [%] | uptake of RFP; GFP, Cy-5 labelled proteins (CEM-SS [14]) [%] | uptake of RFP; GFP, Cy-5 labelled proteins (Jurkat) [%] | uptake of RFP; GFP, Cy-5 labelled proteins (Hela [15]) [%] | uptake of RFP; GFP, Cy-5 labelled proteins (MCF7 [16]) [%] | uptake of RFP; GFP, Cy-5 labelled proteins (U2OS [17]) [%] | uptake of RFP; GFP, Cy-5 labelled proteins (HS-68 [18]) [%] | other results |
| --- | --- | --- | --- | --- | --- | --- | --- | --- | --- | --- | --- | --- | --- | --- | --- | --- | --- | --- | --- | --- | --- |
| C1=Cc2cc3ccc(cc4nc(cc5ccc(cc1n2)[nH]5)C=C4)[nH]3 [Porphyrin, porphyrin] | – | – | – | – | – | – | – | – | – | – | – | – | – | – | – | – | – | – | – | – | IC50 (Hela [1]): 25000 nM; IC50 (MCF7 [2]): 17000 nM |
| KKQVRMAHLVLT (synthesized peptide C4) [Short C4] | – | – | – | – | – | – | – | – | – | – | – | – | – | – | – | – | – | – | – | – | peptide C4 concentration sufficient to block proliferation (Hela [3]): 100 nM; peptide C4 concentration sufficient to block proliferation (MCF7 [4]): 100 nM |
| TGC CAT CAA GCT TAG AGG-^CY5 (antisense TGCCATCAAGCTTAGAGG; all peptide nucleic acid (PNA); further chemistry not fully specified) [free PNA, PNA antisense targeting Cyclin B1, without carrier] | – | – | – | – | – | – | – | – | – | – | – | – | – | – | – | – | – | – | – | – | change in Cyclin B1 level (Cyclin B1 protein level): no change |
